From US20080207532A1, “Use of Nordihydroguaiaretic Acid Derivatives in the Treatment of Drug Resistant Cancer, Viral and Microbial Infection” (Johns Hopkins University, priority 2004, published 2008)
Where two headings read alike, the source gives them in different places.

What was measured:
NCI/ADR-RES cells = experiment: SRB cytotoxicity assay with median-effect / combination index analysis; type: cell-based, human; conditions: for IC50: Homo sapiens
Procedure: The multidrug resistant cell line, NCI/ADR-RES, was obtained from the DTP Human Tumor Cell Line Screen (Developmental Therapeutics Program, NCI). Both cell lines were maintained in Dulbecco's modified Eagle's medium supplemented with 10% fetal bovine serum and the antibiotics penicillin and streptomycin. […] Stocks of M4N and paclitaxel (Sigma-Aldrich, St. Louis, Mo.) were prepared in dimethyl sulfoxide (DMSO) and added to the cell culture medium so that the final concentration of DMSO was one percent. Aqueous stocks of Dox (Sigma-Aldrich) were prepared and filter sterilized before dilution into growth medium.
NCI/ADR-RES cells were seeded at a density of 2×10^4 cells per well in 24 well plates and 24 h later the growth medium was supplemented with M4N, Dox, paclitaxel or combinations of M4N with Dox or M4N with paclitaxel. MAN was used at concentrations between 1.5 and 48 μM. For the combination of MAN and Dox a constant molar ratio of 2.4:1 (M4N:Dox) was used and for M4N and paclitaxel the ratio was 20:1 (M4N:paclitaxel). Three days after drug addition cytoxicity was assessed with the SRB assay (14) with 540 and 690 nm (reference) absorbance measured with a Power Wave 200 microplate reader (Bio-Tek Instruments, Winooski, Vt.).
The combination index (CD isobologram method of Chou and Talalay (16, 17, 18, 19) which is based on the median effect principle, was used to calculate synergism or antagonism for the combined drug effects. Dose-effect curves for each drug, singly and in combination, in serially-diluted concentrations were plotted using the median-effect equation and plot (18, 20) and the CI equation and plot (19). CI values at different effect and dose levels and isobolograms were generated automatically using the computer software CompuSyn (20). With this method, additive, synergistic or antagonistic effects are indicated by CI values of 1, <1, and >1, respectively. Comparison of the ratio of doses required to reach a given effect level for each single drug and the drugs in combination was used to determine the dose-reduction index (DRI).

MCF-7 = conditions: MCF-7, drug sensitive human breast cancer cell line; read-out: reported IC50; cited from earlier work
MDR-1 gene = conditions: cited from earlier work
[1] = system: Hep3B, HT29, K562, LNCaP, and MCF7; experiment: MTT cell viability of human tumor cell lines; type: cell-based; conditions: 72 h, every cell line tested (Hep3B, HT29, K562, LNCaP, MCF7), 3 days
Procedure: Human tumor cell lines were obtained from ATCC (Mannassas, Va.). The human hepatocellular carcinoma cell line, Hep3B, was maintained in Eagle's MEM supplemented with 10% FBS; the human breast cancer cell line, MCF7, was grown in DMEM containing 10% FBS; the human colorectal carcinoma cell line, HT29, was cultured in McCoy's 5a medium with 10% FBS; the human prostate carcinoma cell line, LNCaP, was maintained in RPMI 1640 with 10% FBS and human erythroleukemia cell line, K562, was propagated in Iscove's modified Dulbecco's medium (IMDM) containing 10% FBS. All of the cultures contained the antibiotics penicillin and streptomycin. The C3 cell line was generated by transfection of the EJras-transformed C57B16 (B6) mouse embryo cells with fall length HPV16. C3 cells were grown and maintained in IMDM supplemented with 5% FBS plus penicillin and streptomycin.
For cell culture experiments, Maltose-M3N was dissolved in water to a concentration of 10 mM and then sterilized by filtration. Cells were seeded at approximately 2×10^3 cells per cm^2 in complete media. Twenty-four hours after seeding, the growth media was removed and replaced with media containing the desired concentrations of Maltose-M3N.
Twenty thousand cells were seeded into each well of 24-well plates. […] The solubilized dye was transferred to 96-well plates and read at the wavelength of 540 nm using an ELISA reader.

Hep3B cells = experiment: DAPI staining of nuclei for apoptotic bodies; type: cell-based, human; conditions: 60 μM, 72 hr
Procedure: FIG. 9. (A) Effect of Maltose-M3N on the proliferation of human tumor cell lines. HT29, LNCaP, Hep3B, K562, and MCF7 were treated with different concentrations of Maltose-M3N for 72 hours. Percent cell viability was measured by MTT assay and expressed as mean±SD of triplicate data points. (B) Untreated Hep3B cells or treated with 60 μM Maltose-M3N for 72 hr were stained with DAPI. Arrows indicate apoptotic bodies.
The growth inhibitory effect of Maltose-M3N was evaluated in five human cancer cell lines, including Hep3B, HT29, K562, LNCaP, and MCF7.

C3 tumors = experiment: intratumoral treatment of C3 cell-induced tumors in mice; type: in vivo; conditions: daily intratumoral injections for 4 days
Procedure: Four C57b1/6 mice were inoculated with 5×10^5 C3 cells subcutaneously between the shoulders. Tumors were allowed to develop for approximately 20 days. The mice then received daily intratumoral injections of 0.1 ml of 0.15 M NaCl, 10 mg, 20 mg or 40 mg of Maltose-M3N dissolved in 0.15 M NaCl. After 4 days of treatment, the mice were euthanized and the tumors were excised, immediately fixed and then stored in 4% formaldehyde in PBS. Tissue samples were then sent to Paragon Bioservices (Baltimore, Md.) for histology and immunohistochemistry using antibodies against Cdc2 and survivin.

[2] = system: NCI/ADR-RES multidrug resistant breast cancer xenografts; experiment: combination therapy against NCI/ADR-RES xenografts in nude mice; conditions: two weeks
Procedure: Nude mice bearing NCI/ADR-RES multidrug resistant breast cancer xenografts were used as a model for combination therapy to further examine synergy between M4N and paclitaxel.
T-cell deficient female nude (nu/nu) mice, 5-6 weeks of age, were purchased from Charles River Laboratories (Wilmington, Mass.) and were housed in a pathogen-free room. All experiments involving the mice were carried out in accordance with the Johns Hopkins University Animal Care and Use Committee guideline. The mice were implanted subcutaneously in both flanks with 1×10^6 NCI/ADR-RES cells suspended in Hank's balanced salt solution (HBSS). […] For intraperitoneal (i.p.) administration, M4N, maltose-M3N and paclitaxel were dissolved in a recently developed reduced cremophor solution containing 20% (v) dehydrated ethanol, 20% (v) Cremophor EL, PEG 300, <11% (v) Tween 80 (22). Daily injections of 0.05 ml were performed for each drug and drug combination.
Tumors were measured in two perpendicular dimensions once every seven days, and the tumor volumes were calculated according to the following formula: […]
where a is the width of the tumor (smaller diameter) and b is the length (larger diameter) (23). The mean tumor volume and standard error were calculated for each treatment group. Relative mean tumor volumes, (V/V0), where V is the mean tumor volume at a particular time and V0 is the mean tumor volume at day 0 (23), were determined and used to assess tumor growth inhibition (T/C value) using the following equation:
T/C(%)=Relative Mean Tumor Volume of treated/Relative Mean Volume of control×100.
The NCI standard for the minimal level for antitumor activity (T/C≦42%) was adopted (25). At the termination of the experiment the tumors were excised and fixed in formaldehyde. Tissue samples were then sent to Paragon Bioservices for histology and immunohistochemistry using antibodies against human P-glycoprotein (Pgp).
Two dosage regimens of M4N and paclitaxel, both with a constant molar ratio of 20:1 (M4N:paclitaxel), were employed as determined by in vitro testing to be synergistic as shown in Table 1. The 8 and 16 μmol m^2 doses of pactitaxel were submaximal based on values from other studies (22) and the M4N doses of 160 and 320 μmol/m^2 were arrived at by decreasing the maximum tolerated dose used in our previous study with MCF-7 breast cancer xenografts (5). An additional NDGA derivative was also tested. Maltose-M3N was developed as a water soluble alternative to M4N, however for consistency it was dissolved in the same reduced cremophor solvent system as M4N and paclitaxel for this study.

solubility in water = type: physicochemical
[3] = 72 h, NCI/ADR-RES, three days, combinations at molar ratio 2.4:1 (M4N:Dox) or 20:1 (M4N:paclitaxel), given as M4N + second drug, read-out: Dm, median effect dose (concentration that inhibits cell growth by 50%)
[4] = single agent, NCI/ADR-RES, read-out: IC50
[5] = M4N/Dox combination 2.4:1, NCI/ADR-RES
[6] = M4N/Dox combination, NCI/ADR-RES
[7] = higher regimen: M4N or Mal-M3N 320, Px 16 μmoles/m^2, i.p. daily
[8] = M4N/paclitaxel combination 20:1, NCI/ADR-RES
[9] = M4N/paclitaxel combination, NCI/ADR-RES
[10] = lower regimen: M4N 160, Px 8 μmoles/m^2, i.p. daily

SMILES: COc1cccc2c1C(=O)c1c(O)c3c(c(O)c1C2=O)C[C@@](O)(C(=O)CO)C[C@@H]3O[C@H]1C[C@H](N)[C@H](O)[C@H](C)O1 [Dox, doxorubicin]
- concentration necessary to inhibit the growth of 75% of cells (ED75) (NCI/ADR-RES cells; Dox alone, NCI/ADR-RES): 30.5 µM
- concentration necessary to inhibit the growth of 75% of cells (ED75) (NCI/ADR-RES cells; Dox with concurrent 11.3 μM M4N, NCI/ADR-RES): 4.7 µM
- IC50 (NCI/ADR-RES cells; [3]): 3.22 µM
- IC50 (NCI/ADR-RES cells; [4]): 3.22 µM
- DRI value at ED75 (NCI/ADR-RES cells; [5]): 6.47
- DRI value at ED90 (NCI/ADR-RES cells; [5]): 30.50
- DRI value at ED95 (NCI/ADR-RES cells; [5]): 87.56
- decrease of ED75 by concurrent M4N (DRI) (NCI/ADR-RES cells; [6]): 6.47 fold
- reduction of ED95 by concurrent M4N (DRI) (NCI/ADR-RES cells; [6]): 87.6 fold
- IC50 (MCF-7): 0.13 µM

SMILES: COc1cc2c(cc1O)CCN[C@]21CS[C@@H]2c3c(OC(C)=O)c(C)c4c(c3[C@H](COC1=O)N1[C@@H]2[C@H]2c3c(cc(C)c(OC)c3O)C[C@@H]([C@@H]1O)N2C)OCO4 [ET-743]
- MDR-1 gene activation (MDR-1 gene): able to inhibit MDR-1 gene activation

SMILES: COc1ccc(C[C@H](C)[C@H](C)Cc2ccc(OC)c(OC3OC(CO)C(OC4OC(CO)C(O)C(O)C4O)C(O)C3O)c2)cc1OC (stereo partly shown) [Maltose-M3N]
- IC50 [1]: 20 to 40 µM
- mode of cell death (DAPI staining) (Hep3B cells): cell death occurred via apoptosis
- Cdc2 protein expression in tumors (C3 tumors): reduced expression levels
- apoptosis and necrosis by H&E staining (C3 tumors): elevated levels of apoptosis and necrosis
- survivin protein expression in tumors (C3 tumors): reduced expression levels
- Relative Mean Tumor Volume [2, 7]: 1.25
- T/C % [2, 7]: 47.7%
- solubility in aqueous solution (solubility in water): water soluble

SMILES: CC(=O)O[C@H]1C(=O)[C@@]2(C)[C@H]([C@H](OC(=O)c3ccccc3)[C@]3(O)C[C@H](OC(=O)[C@H](O)[C@@H](NC(=O)c4ccccc4)c4ccccc4)C(C)=C1C3(C)C)[C@]1(OC(C)=O)CO[C@@H]1C[C@@H]2O [paclitaxel]
- IC50 (NCI/ADR-RES cells; [3]): 3.26 µM
- IC50 (NCI/ADR-RES cells; [4]): 3.26 µM
- DRI value at ED75 (NCI/ADR-RES cells; [8]): 54.32
- DRI value at ED90 (NCI/ADR-RES cells; [8]): 150.31
- DRI value at ED95 (NCI/ADR-RES cells; [8]): 300.34
- decrease of ED50 by concurrent M4N (DRI) (NCI/ADR-RES cells; [9]): 19.63 fold
- decrease of ED95 by concurrent M4N (DRI) (NCI/ADR-RES cells; [9]): 300.3 fold
- Deaths [2, 7]: 0/7
- Relative Mean Tumor Volume [2, 7]: 1.59
- T/C % [2, 7]: 60.7%
- Deaths [2, 10]: 0/7
- Mean Body Weight Change [2, 10]: +0.3 g/mouse
- Relative Mean Tumor Volume [2, 10]: 0.90
- T/C % [2, 10]: 34.4%
- IC50 (MCF-7): 0.0064 µM
